The source of these data is patent US20250195448A1, “CELL TYPE SELECTIVE DELIVERY OF EXOSOME CARGO USING NOTCH LIGAND-RECEPTOR SYSTEM” (Northwestern University, priority 2023, published 2025).

“Also recorded” adds a separate entry of the source.

The subject of one series is Notch signaling pathway. Briefly: Pharmacological treatments of neurons, Mg^2+-free glycine-induced Notch activation (WB). In kind it is cell-based, rat. The note with it: 90 mins after treatment; for effect on Mg^2+-free glycine-induced elevation of activated-Notch1, -Notch2 and Hes1 protein levels: APV 50 μM, dynasore 80 μM pretreatment. On the procedure:
Synaptic NMDARs were activated as previously described^16,63. […] The osmolarity was adjusted to 300-330 mOsm/l). […] The osmolarity was adjusted to 300-330 mOsm/l). […] Then, neuron culture medium was carefully removed from dishes. […] Then neurons were washed twice with Veh solution, the saved culture medium was returned and maintained in incubator for assigned durations (37° C., 5% CO2). Neuron samples were collected and resuspended in a RIPA lysis buffer (50 mM Tris, 150 mM NaCl, 0.1% SDS, 1 mM EDTA, 0.5% sodium deoxycholate, 1% Triton X-100, 1× protease inhibitor cocktail (Thermo Fisher Scientific, Cat #78443), 1× phosphatase inhibitor (Thermo Fisher Scientific, Cat #78420), pH 7.4). The resuspended lysates were vortexed for 20 s and then incubated on ice for 30 min and centrifuged at 16,200 g for 15 mins. The supernatants were mixed with 4×SDS loading buffer at a 3:1 ratio. The mixtures were boiled at 95° C. for 5 mins. […] Fiji (NIH) was used for quantification.

Another series deals with Alix. In words: Alix phosphorylation in Mg^2+-free glycine-treated neurons (IP of Alix, WB p-S/T). The note with it: for effect on Mg^2+-free glycine-induced Alix phosphorylation: H89 20 μM, staurosporine 1 μM, APV 50 μM, KN93 10 μM, AIP 1 μM. The format is cell-based, rat. On the procedure: Neurons were pretreated with DMSO (1:1000) or dynasore (80 μM, Sigma-Aldrich, Cat #SML0340) or H89 (20 μM, Sigma-Aldrich, Cat #B1427) or staurosporine (1 μM, Tocris, Cat #1285) or APV (50 μM, Sigma-Aldrich, Cat #A5282) or KN93 (10 μM, Sigma-Aldrich, Cat #K1385) or AIP (1 μM, Anaspec, Cat #AS-64929) for 30 mins at 37° C. in a humidified 5% CO2 atmosphere incubator. Then, neuron culture medium was carefully removed from dishes. The collected medium was then kept at 37° C. in a humidified 5% CO2 atmosphere incubator. The neurons were washed three times with Veh or Mg^2+-free glycine and incubated for 5 min with solutions containing different inhibitors. Then neurons were washed twice with Veh solution, the saved culture medium was returned and maintained in incubator for assigned durations (37° C., 5% CO2).
WedgeWell™ Tris-Glycine Mini Protein Gels (Fisher Scientific, Cat #XP04125BOX, XP04120BOX and XV00100PK20) were used for electrophoresis. After electrophoresis, proteins were transferred onto nitrocellulose membranes (Thermo Fisher, Cat #4500002). For WB, the membranes were blocked with 10% bovine serum albumin (BSA, Jackson immunoResearch laboratories, Cat #001-000-162) in TBST solution (Tris-buffered saline, 0.1% Tween 20) for one hour in room temperature (RT). Then membranes were incubated with primary antibodies in incubation solution (3% BSA in TBST) overnight at 4° C. with mild agitation. Following primary antibodies were used: mouse anti-Alix (1:1000, Cell Signaling Technology, Cat #2171S, RRID: AB_2299455), rabbit anti-Alix (1:1000, Cell Signaling Technology, Cat #18269, RRID: AB_2798796), mouse anti-Tsg101 (1:1000, Santa Cruz Biotechnology, Cat #sc-7964, RRID: AB_671392), mouse anti-CD81 (1:1000, Santa Cruz Biotechnology, Cat #sc-166029, RRID: AB_2275892), rabbit anti-Notch1ICD (1:1000, Abcam, Cat #ab52627, RRID: AB_881725), rabbit anti-Notch2ICD (1:1000, Cell Signaling Technology, Cat #5732S, RRID: AB_10693319), rabbit anti-activated Notch1 (1:1000, Abcam, Cat #ab52301, RRID: AB_881726), rabbit anti-activated Notch2 (1:1000, MyBioSource, Cat #MBS9410510), rabbit anti-Sdcbp (1:1000, Abcam, Cat #ab19903, RRID: AB_445200 and Cell Signaling Technology, Cat #27964), rabbit anti-GM130 (1:1000, Abcam, Cat #ab52649, RRID: AB_880266), rabbit anti-Hes1 (1:1000, Cell Signaling Technology, Cat #11988S, RRID: AB_2728766 and Abcam, Cat #ab71559, RRID: AB_1209570), chicken anti-Tuj1 (1:2000, Novus Biologicals, Cat #NB100-1612, RRID: AB_10000548), rabbit anti-p-S/T (1:1000, Cell Signaling Technology, Cat #9624S, RRID: AB_331817), mouse anti-PSD95 (1:2000, Thermo Fisher Scientific, Cat #MA1-046, RRID: AB_2092361), rabbit anti-PSD95(pS295) (1:1000, Abcam, Cat #ab76108, RRID: AB_1310621), rabbit anti-GAPDH (1:2000, Cell Signaling Technology, Cat #2118, RRID: AB_561053), rabbit anti-GluA1 (1:1000, EMD Millipore, Cat #PC246, RRID: AB_564636) and guinea pig anti-Bassoon (1:1000, Synaptic Systems, Cat #141 318, RRID: AB_2927388). After 3×10 mins intense wash in TBST solution, membranes were incubated with corresponding secondary antibodies for one hour at RT with mild agitation. Following secondary antibodies were used: goat-anti-rabbit poly-HRP (1:2000, Thermo Scientific, Cat #32260), goat-anti-mouse poly-HRP (1:2000, Thermo Scientific, Cat #32230), goat-anti-chicken HRP (1:2000, Abcam, Cat #ab97135) and Goat anti-Guinea Pig poly-HRP (1:2000, Fisher Scientific, Cat #OB6090-05). […] Fiji (NIH) was used for quantification.

Another series deals with hippocampal neurons. In words: Mg^2+-free glycine-induced neuronal EV release. The format is cell-based. Particulars: for effect on Mg^2+-free glycine-induced EV release: APV 50 μM, H89 20 μM. On the procedure:
Synaptic NMDARs were activated as previously described^16,63. […] The osmolarity was adjusted to 300-330 mOsm/l). […] The osmolarity was adjusted to 300-330 mOsm/l). […] The EV-containing supernatant was centrifuged at 3000×g for 30 mins at 4° C. to remove residual neurons and large debris. Then, the supernatant was concentrated using a molecular weight cutoff (MWCO) filter (10 KDa, EMD Millipore, Cat #UFC801024) to 0.5 ml. The concentrated solution was then fractionated into 10 fractions (0.5 ml in EV-free PBS, MEDIATECH INC CA, Cat #21-040-CV) using a qE-Voriginal-35 nm SEC column (Izon Science, Cat #SP5-USD) with an automated fraction collector V1 (Izon Science, Cat #AFC-V1). For each experimental group, EVs released from three 60 mm dishes of mouse hippocampal neurons were pooled and enriched by the SEC method as described above. Then take 10 μl of the enriched EVs from each sample and dilute them with 990 μl EV-free PBS. The samples were centrifuged at 2500×g for 15 mins. Mix 0.5 ml of each sample with 0.5 ml incubation solution. Load 70 μl of each mixture to an ExoView Mouse Tetraspanin chip (Nanoview Bioscience, Cat #EV-TETRA-M2) and incubate overnight at RT in dark. The next day, unbound EVs were washed off the chip by five 3-min washes with the solution A. After incubating with the block solution for 1 hr (RT), the chips were incubated with anti-tetraspanin mixture (Included in the kit, anti-CD81, CF® 555, anti-CD9, CF® […] and anti-CD63, CF® 647) for 1 hr on an orbital shaker. The chips were washed with the solution A twice (3 mins each) and the solution B 5 times (3 min each). The chips were then rinsed in MilliQ water to remove excess solution B. Air dry the chips. A NanoView R100 equipment (Nanoview Bioscience) was used to scan the chips. The data was analyzed by ExoView Analyzer 3.1.4 (Nanoview Bioscience). […] Then, neuron culture medium was carefully removed from dishes. […] Then neurons were washed twice with Veh solution, the saved culture medium was returned and maintained in incubator for assigned durations (37° C., 5% CO2).

For the next series, the system named is PSD95. On the procedure:
WedgeWell™ Tris-Glycine Mini Protein Gels (Fisher Scientific, Cat #XP04125BOX, XP04120BOX and XV00100PK20) were used for electrophoresis. After electrophoresis, proteins were transferred onto nitrocellulose membranes (Thermo Fisher, Cat #4500002). For WB, the membranes were blocked with 10% bovine serum albumin (BSA, Jackson immunoResearch laboratories, Cat #001-000-162) in TBST solution (Tris-buffered saline, 0.1% Tween 20) for one hour in room temperature (RT). Then membranes were incubated with primary antibodies in incubation solution (3% BSA in TBST) overnight at 4° C. with mild agitation. […] Fiji (NIH) was used for quantification.

Another series concerns neurons. The note with it: 30 mins treatment.
The next series relates to Notch target genes. The note with it: 60 mins after treatment.

Experimental for rat hippocampal neurons: DIV 18 rat hippocampal neurons in 6-well plate (cover glasses, Carolina, Cat #633037, 1.5×10^6 cells per well) were used for this assay. At DIV 16, neurons were co-transfected with either 1 μg mCherry+GFP or 1 μg mCherry-Alix+GFP plasmids using HilyMax (Dojindo Cat #H357-15). Two days later, the neurons were used for live cell imaging analysis. Neurons (put in a magnetic imaging chamber, Warner Instruments, Cat #QR-40L) were rinsed three times with warm (37° C.) extracellular solution (pH 7.4, 150 mM NaCl, 5 mM KCl, 1 mM MgCl2, 2 mM CaCl2), 10 mM glucose, 10 mM HEPES). Then the neurons were placed into a heating stage (37° C.) supplied with a humidified 5% CO2 atmosphere and were incubated with this solution for 20 mins in a humidified 5% CO2 atmosphere incubator at 37° C. […] Then the extracellular solution was put back. Images were captured using a Nikon A1R+ confocal laser microscope and a 100× oil objective lens (also was kept at 37° C. during recording). […] The data was imported to Fiji (NIH) for further analysis.

On to `N[C@H](CCCP(=O)(O)O)C(=O)O` [APV, D-2-amino-5-phosphonovalerate], for which the “effect on Mg^2+-free glycine-induced elevation of activated-Notch1, -Notch2 and Hes1 protein levels” value with Notch signaling pathway is recorded as “inhibited”. Besides, the “effect on Mg^2+-free glycine-induced Alix phosphorylation” value in the series with Alix is “blocked; also recorded: significantly reduced”. Moreover, in the series on hippocampal neurons, the “effect on Mg^2+-free glycine-induced EV release” value is “suppress; also recorded: blocked”.
`O=C(N/N=C/c1ccc(O)c(O)c1)c1cc2ccccc2cc1O` [Dynasore]: the “effect on Mg^2+-free glycine-induced elevation of activated-Notch1, -Notch2 and Hes1 protein levels” value in the series on Notch signaling pathway was “blocked elevation”; with Notch signaling pathway (listed as dynasore), “inhibited”.
Take `O=S(=O)(NCCNC/C=C/c1ccc(Br)cc1)c1cccc2cnccc12` [H89]: the “effect on Mg^2+-free glycine-induced Alix phosphorylation” value in the series with Alix was “significantly inhibit; also recorded: inhibited”. Besides, the “effect on Mg^2+-free glycine-induced EV release” value in the series on hippocampal neurons is listed as “suppress; also recorded: blocked”.
Consider `COc1ccc(S(=O)(=O)N(CCO)c2ccccc2CN(C)C/C=C/c2ccc(Cl)cc2)cc1` [KN93], for which the “effect on Mg^2+-free glycine-induced Alix phosphorylation” value in the series on Alix was “failed to block”.
For `NCC(=O)O` [Mg^2+-free glycine, glycine], the “levels of activated-Notch1, -Notch2 and Hes1 after Mg^2+-free glycine treatment” value in the series on Notch signaling pathway (WB) was “elevated”. Further, the “Alix phosphorylation after Mg^2+-free glycine stimulation” value with Alix was “leads to Alix phosphorylation”. In the series on hippocampal neurons (Mg^2+-free glycine solution, 30 mins), the “neuronal EV biogenesis and release” value was “triggered”. Moreover, in the series with PSD95, the “phosphorylation of Ser295 (pS295) in PSD95” value is “induces”. In the series with neurons, the “plasma membrane rapture (LDH)” value is “does not cause”. For the same molecule, the dendritic spine enlargement entry in the series on rat hippocampal neurons was “enlarged dendritic spines”. The “Notch target gene expression” value with Notch target genes is listed as “activated”.
For the molecule `CN[C@@H]1C[C@H]2O[C@@](C)([C@@H]1OC)n1c3ccccc3c3c4c(c5c6ccccc6n2c5c31)C(=O)NC4` [Stau, staurosporine], the “effect on Mg^2+-free glycine-induced Alix phosphorylation” value in the series on Alix is recorded as “not significant”.
